Reference: patent US5561154A, “Treatment of acute urinary retention” (Institut de Recherches Chimiques et Bioloques Appliquees …, priority 1995, dated 1996)
Where a name gives a salt, the structure may show the parent alone. Read-outs that look alike come from different tables or passages of the source.

How the values were obtained:
[1] = Hepatotoxicity on administration (general statement); format: in vivo; conditions: administered iv at 50 mg or less doses
[2] = Stability in aqueous solution; format: physicochemical
Description: In the parent application it was pointed out that DAM, the active ingredient, is effectively soluble and stable in water in the form of its hydrochloride salt. Deacetyl moxisylyte hydrochloride (DAM.HCl) is soluble up to a concentration of 10% p/v, which is the upper therapeutically acceptable concentration, in pure (i.e. distilled, bidistilled or preferably deionized) water and in aqueous solutions buffered at pH 5-7. Water solutions containing 1% p/v of deacetyl moxisylyte hydrochloride without any antioxidant and kept at pH 5, 6 and 7, are stable for 15 days at 25° C. and for 90 minutes at 121° C. […] More details regarding the solubility and stability in water of DAM.HCl are given in the parent application.

liver = assay: Absence of hepatotoxicity, 2-month daily i.v. injection in rats; format: in vivo, rat; conditions: male Wistar rats, 1.5 mg/kg daily i.v. for 2 months
Procedure: Adult male Wistar rats were daily injected with 1.5 mg/kg of DAM.HCl in saline solution (i.e. the solution of Ex 1) per i.v. route for 2 months, then slaughtered.

[3] = cited from earlier work
[4] = target: T1, isolated rabbit urethra (contraction induced by noradrenaline) (Oryctolagus cuniculus, UniProt O02824); assay: Isolated rabbit urethra: antagonism of noradrenaline-induced contraction; format: cell-based; conditions: against noradrenaline, isolated male rabbit urethra, 5 experiments; read-out: pA2 (converted)
T1 construct: from tissue; host or cells: isolated urethra of male rabbits
T1 sequence (O02824 1-466): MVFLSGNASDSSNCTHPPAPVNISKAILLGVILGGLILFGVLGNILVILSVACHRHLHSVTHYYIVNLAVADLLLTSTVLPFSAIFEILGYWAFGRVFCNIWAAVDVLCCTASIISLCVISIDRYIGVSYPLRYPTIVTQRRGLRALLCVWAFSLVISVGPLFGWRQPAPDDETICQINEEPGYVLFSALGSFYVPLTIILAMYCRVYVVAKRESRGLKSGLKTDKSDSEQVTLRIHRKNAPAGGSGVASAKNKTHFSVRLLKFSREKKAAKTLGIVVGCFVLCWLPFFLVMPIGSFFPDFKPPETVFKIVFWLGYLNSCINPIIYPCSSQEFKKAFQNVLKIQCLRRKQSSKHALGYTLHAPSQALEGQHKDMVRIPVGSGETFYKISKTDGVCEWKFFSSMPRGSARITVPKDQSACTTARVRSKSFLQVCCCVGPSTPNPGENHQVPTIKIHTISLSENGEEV
Procedure: After slaughtering of male rabbits, each urethra was taken out then placed into a receptacle containing a physiological saline aqueous solution, and kept at 37° C. with an oxygen/carbon oxide mixture (95/5 p/p). One end of the urethra was fixed to a pressure captor linked to a recording device for measuring the organ contractions.
Contracturing effects of noradrenaline were determined by succesive infusions of increasing […] up to the contraction corresponding to the maximal amplitude. The measures were carded out with and without DAM.HCl.
The activity of DAM.HCl was measured as a pA2 value, pA2 being here the cologarithm of the antagonist molar concentration in the presence of which the noradrenaline concentration needs to be multiplied by two to obtain the same effect in the absence of antagonist.

α1 -adrenoreceptors = assay: Radioligand binding, (125I)-HEAT, rabbit urethral membranes
Procedure: (§1) α-adrenoreceptors can be by use of a ^3 H- or 125 I- labelled specific antagonist (or agonist) on membrane preparations of the concerned organ, here rabbit urethra.
(§2) A male rabbit urethral grinding was filtered then centrifugated. The filtrate thus obtained is a membrane preparation which was incubated with a radioactive ligand, namely (^125 I)-HEAT [wherein HEAT is 2-[2-(3-iodio-4-hydroxyphenyl)ethyl-aminoethyl]-tetralone for the α1 -adrenoreceptors, and (^3 H)-rauwolscine for the α2 -adrenoreceptors.
(§3) The incubations were carded out in the absence or in the presence of an increasing concentration of the product to be tested. The affinity was measured by means of the inhibition coefficient (Ki).

[5] = system: urethral and arterial pressures induced by noradrenaline; assay: Anesthetized rabbits: noradrenaline-induced increases in urethral and arterial pressure; format: in vivo, rabbit; conditions: Oryctolagus cuniculus, iv, noradrenaline-induced increase, i.v.
Procedure: Male White New-Zealand rabbits (weighing 3 kg each) were anesthetized with ethyl-urethane. Arterial pressure (AP) was measured with a pressure captor linked to a catheter located in the carotid; urethral pressure (UP) was determined with a pressure captor linked to a catheter introduced into the urethra and located at the level of the vesical base. The femoral vein was also catheterized for administering the products to be tested.
The increases in the urethral and arterial pressures, which were induced by noradrenaline, were determined after i.v. injections of increasing doses for periods of 3 minutes each, from 15 minutes before the injection of the α-blocking product to be tested to 15 minutes after said injection.
The results thus obtained are expressed hereinafter an inhibiting dose 50% (ID-50) which is defined as the dose of a-blocking product in the presence of which, the effect of the largest dose of noradrenaline is divided by a factor 2.

[6] = system: increase in UP induced by electric stimulation of the hypogastric nerve; assay: Anesthetized dogs: hypogastric nerve stimulation, urethral pressure, AP and HR; format: in vivo, dog; conditions: anesthetized Beagle dogs
Procedure: Adult male Beagle dogs were anesthetized by i.v. injection of sodium barbital (30 mg/kg).
The cannulation of each carotid and urethra allowed measurement of AP and UP. By derivation of the AP signal, the heart rate (HR) was recorded.
The increase in UP was induced by electric stimulation of the hypogastric nerve distal roots (10 ms, 30 Hz, 5s, 6-10 V). That increase in UP is determined before and 15 minutes after the injection of the α-blocking agent to be tested.
The results were expressed by calculating a ID-50 defined as the dose of α-blocking agent which inhibits 50% of the effects of the hypogastric nerve stimulation on UP. The effects of said ID-50 were determined on AP and HR in order to obtain a variation percentage with respect to the initial values.

[7] = pure water and aqueous solutions buffered at pH 5-7; cited from earlier work
α2 -adrenoreceptors = assay: Radioligand binding, (3H)-rauwolscine, rabbit urethral membranes; conditions: male rabbit urethral membrane preparation
Procedure: as §1, §2, §3

In the case of Cc1cc(OCCN(C)C)c(C(C)C)cc1O [DAM, 4-[2-(dimethylamino)ethoxy]-2-methyl-5-(1-methylethyl)phenol], the hepatotoxicity i.v. [1] is reported as “substantially devoid of hepatotoxicity”, the “stability in aqueous solution” value ([2]; aqueous solution) is reported as “stable” and the “degradation on sterilization of aqueous solution” value ([2]; classical sterilization, e.g. autoclave 15 minutes at 121° C. or sterilizing filtration) is reported as “without degradation”.

In the case of Cc1cc(OCCN(C)C)c(C(C)C)cc1O [DAM.HCl, Deacetyl moxisylyte hydrochloride], the “hepatotoxicity (study of organs, analysis of the liver)” value (liver) is given as “no sign of hepatotoxicity”, the “stability of water solution at 25° C.” value ([3]; 1% p/v, no antioxidant, pH 5, 6 and 7, 25° C.) is given as 15 days and the “stability of water solution at 121° C.” value ([3]; 1% p/v, no antioxidant, pH 5, 6 and 7, 121° C.) is given as 90 min. The “stability of water solution with Na2 SO3 at 95° C.” value ([3]; 1% p/v, pH 5, 6 and 7, sodium sulfite 0.1 p/v, 95° C., no coloration) was 15 days, the Kb [4] was 0.00316 µM and the “times more active on α1 -adrenoreceptors than on α2 -adrenoreceptors” value (α1 -adrenoreceptors; from Ki values of table II) was “six”. The Ki (α1 -adrenoreceptors; male rabbit urethral membrane preparation, (125I)-HEAT) was 0.109 ± 0.02 µM, the ED50 ([5]; n = 5, read-out: ID-50 i.v., AP (arterial pressure)) was 3.5 ± 0.65 mg/kg and the ED50 ([5]; n = 5, read-out: ID-50 i.v., UP (urethral pressure)) was 0.4 ± 0.03 mg/kg. For the same compound, the “Effect of ID-50 on AP (variation percentage with respect to the initial values)” value ([6]; at the ID-50 dose) was -6%, the “Effect of ID-50 on HR (variation percentage with respect to the initial values)” value ([6]; at the ID-50 dose) was -5% and the “ID-50, effect on UP” value ([6]; hypogastric nerve stimulation, 15 minutes after injection, in mg/kg) was 0.05 ± 0.01. For the same compound, the solubility (soluble up to a concentration) [7] was > 10 % p/v and the Ki (α2 -adrenoreceptors) was 0.637 ± 0.094 µM.

In the case of CC(=O)Oc1cc(C(C)C)c(OCCN(C)C)cc1C [moxisylyte, 4-[2-(dimethylamino)ethoxy]-2-methyl-5-(1methylethyl)phenol acetate, reference compound], the “stability of solution stabilized with dimethyl-beta-cyclodextrin at 45° C.” value ([3]; pH 5 solution, 1 mg/ml, dimethyl-beta-cyclodextrin as stabilizing agent, 45° C.) is listed as 3 months.
